The record followed here is ChEMBL document CHEMBL1201862, “PubChem BioAssay data set” (2004).

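All cell lines were grown in 96-well plates and treated with compound for 48 hours. GI50 = concentration required for 50% inhibition of growth.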 Calls of active or inactive are those of the source. No stated cut-off is given here; in the data, active = GI50 up to about 1.1 µM and inactive = higher.

Test systems include UO-31; HL-60; TK-10; SNB-75; ACHN; CCRF-CEM; SF-268; OVCAR-5; 786-0; NCI-H23; LOX IMVI; SK-MEL-28; HCT-116; SF-539; OVCAR-3; NCI-H522; SK-OV-3.
Holding throughout (assay): NCI tumour cell line growth inhibition, 48 h

On to `O=C1/C(=C/c2ccc(Cl)cc2)CCC1CCN1CCOCC1` (stereo unspecified), for which the GI50 in the assay on UO-31 was 68.7 µM (inactive); with HL-60 it was 23 µM (inactive); in the assay on TK-10, > 100 µM (inactive); with SNB-75, > 100 µM (inactive); in the assay on ACHN, 60.4 µM (inactive); in the assay with CCRF-CEM, 29 µM (inactive). The GI50 with SF-268 is 54.3 µM (inactive); in the assay on OVCAR-5 it was > 100 µM (inactive); in the assay on 786-0 it was 72.3 µM (inactive); in the assay on NCI-H23, 86.1 µM (inactive); in the assay with LOX IMVI it was 39.8 µM (inactive); with SK-MEL-28, > 100 µM (inactive). Also, the GI50 in the assay on HCT-116 was 53 µM (inactive); in the assay on SF-539, > 100 µM (inactive); in the assay with OVCAR-3, 59.3 µM (inactive).

Regarding `COc1ccc(CN(CCN(C)C)c2ccccn2)cc1.Cn1c(=O)c2[nH]c(Br)nc2n(C)c1=O`, the GI50 in the assay on UO-31 was > 100 µM (inactive); in the assay with TK-10, > 100 µM (inactive); in the assay on NCI-H522 it was > 100 µM (inactive); in the assay on SNB-75 it was 23.3 µM (inactive); with SK-OV-3, > 100 µM (inactive); with ACHN, > 100 µM (inactive). Moreover, the GI50 with CCRF-CEM, with SF-268, in the assay on OVCAR-5, in the assay with 786-0, with NCI-H23 and with SK-MEL-28 was > 100 µM (inactive) throughout. Further, the GI50 in the assay with SF-539 and in the assay with OVCAR-3 was > 100 µM (inactive) in each case.

For the compound `O=C1CCC2(c3ccc(F)cc3)Nc3ncccc3N12` (stereo unspecified), the GI50 in the assay on UO-31 was > 100 µM (inactive); in the assay on HL-60, > 100 µM (inactive); in the assay with TK-10, > 100 µM (inactive); in the assay on NCI-H522 it was > 100 µM (inactive); in the assay with SNB-75, 70.1 µM (inactive); with ACHN, > 100 µM (inactive). Besides, the GI50 in the assay on CCRF-CEM, with SF-268, in the assay with OVCAR-5, in the assay on 786-0, in the assay on NCI-H23 and in the assay with LOX IMVI was > 100 µM (inactive) each time. The GI50 in the assay with SK-MEL-28, in the assay on SF-539 and in the assay on OVCAR-3 was > 100 µM (inactive) in each case.

Consider `O=C(CO)CC(=O)C(=O)Nc1cccc(C(F)(F)F)c1`, for which the GI50 in the assay on UO-31, with HL-60, in the assay on TK-10, with NCI-H522, with SNB-75 and in the assay with SK-OV-3 was > 100 µM (inactive) each time. The GI50 with ACHN, in the assay with SF-268, in the assay on OVCAR-5, in the assay on 786-0, in the assay on NCI-H23 and in the assay with LOX IMVI was > 100 µM (inactive) throughout. Moreover, the GI50 in the assay on SK-MEL-28, with HCT-116, in the assay on SF-539 and with OVCAR-3 was > 100 µM (inactive) each time.

With `O=C(CC1Sc2ccccc2NC1=O)Nc1cccc(Cl)c1` (stereo unspecified), the GI50 in the assay with UO-31 was 28.8 µM (inactive); with HL-60 it was 35.6 µM (inactive); in the assay with TK-10 it was 41.9 µM (inactive); in the assay with SNB-75, 32.4 µM (inactive); in the assay with ACHN, 31.8 µM (inactive); in the assay on CCRF-CEM it was 40.4 µM (inactive). Also, the GI50 in the assay on SF-268 is 34.9 µM (inactive); with OVCAR-5 it was > 100 µM (inactive); in the assay with 786-0, 39.4 µM (inactive); in the assay with NCI-H23, 55.5 µM (inactive); with LOX IMVI, 20.3 µM (inactive); with SK-MEL-28, 24 µM (inactive). Further, the figures for the GI50 in the assay with HCT-116, in the assay on SF-539 and with OVCAR-3 were 68.5 µM (inactive), 72.9 µM (inactive) and 27 µM (inactive), respectively.

Consider `CCOC(=O)NC(=O)c1cn(CCOC(=O)NCCCCCCNC(=O)OCCn2cc(C(=O)NC(=O)OCC)c(=O)[nH]c2=O)c(=O)[nH]c1=O`, for which the GI50 in the assay with UO-31, in the assay with HL-60, in the assay on NCI-H522, in the assay on SNB-75, with SK-OV-3 and in the assay on ACHN was > 100 µM (inactive) each time. The GI50 in the assay with CCRF-CEM, in the assay with SF-268, with 786-0, in the assay on LOX IMVI, in the assay with SK-MEL-28 and in the assay on HCT-116 was > 100 µM (inactive) throughout. Moreover, in the assay with OVCAR-3, the GI50 was > 100 µM (inactive).

On to `CC12N=NNC1C(=O)NC2=O` (stereo unspecified), for which the GI50 in the assay with UO-31, with HL-60, in the assay with TK-10, with NCI-H522, in the assay with SNB-75 and in the assay on SK-OV-3 was > 100 µM (inactive) throughout. Besides, the GI50 in the assay with ACHN, in the assay on CCRF-CEM, in the assay on SF-268, in the assay with 786-0, with NCI-H23 and in the assay on LOX IMVI was > 100 µM (inactive) throughout. The GI50 with SK-MEL-28, in the assay with HCT-116, in the assay with SF-539 and with OVCAR-3 was > 100 µM (inactive) throughout.

Turning to `CCCCCCC(=O)C/C(=N/NC(N)=S)C(=O)NC1C2CC3CC(C2)CC1C3` (stereo unspecified), the GI50 with UO-31, in the assay with HL-60, with TK-10, with SNB-75, in the assay with ACHN and in the assay with CCRF-CEM was > 100 µM (inactive) throughout. Moreover, the GI50 in the assay with SF-268, in the assay on OVCAR-5, with 786-0, with NCI-H23, in the assay on LOX IMVI and in the assay on SK-MEL-28 was > 100 µM (inactive) each time. Besides, the GI50 in the assay on HCT-116 and with OVCAR-3 was > 100 µM (inactive) throughout.

As for `CN1CCc2c1nc(-c1ccc(Cl)cc1)c1c2N(C)CC1`, the GI50 with UO-31 was 10.7 µM (inactive); in the assay on HL-60, 10.7 µM (inactive); with TK-10, 29.2 µM (inactive); in the assay with SNB-75, 29.6 µM (inactive); with SK-OV-3 it was 21.2 µM (inactive); in the assay on ACHN it was 6.78 µM (inactive). The GI50 in the assay with CCRF-CEM was 12 µM (inactive); in the assay with SF-268, 21.5 µM (inactive); in the assay on OVCAR-5 it was 24.1 µM (inactive); with 786-0, > 100 µM (inactive); in the assay on NCI-H23, 14.8 µM (inactive); in the assay on LOX IMVI, 5.01 µM (inactive). Besides, the GI50 with HCT-116 is 1.85 µM (inactive); in the assay with SF-539, 15.4 µM (inactive); in the assay with OVCAR-3 it was 1.51 µM (inactive).

In the case of `Cn1c(=O)cc2[nH]c3ccccc3n2c1=O`, the GI50 with UO-31 was 93.3 µM (inactive); in the assay on HL-60, > 100 µM (inactive); in the assay on TK-10, 81.7 µM (inactive); in the assay with SNB-75, > 100 µM (inactive); with SK-OV-3, 48.8 µM (inactive); with ACHN, 69.7 µM (inactive). The GI50 was 41.5 µM (inactive) with CCRF-CEM; > 100 µM (inactive) in the assay with SF-268; > 100 µM (inactive) in the assay with OVCAR-5; 24 µM (inactive) in the assay on 786-0; > 100 µM (inactive) in the assay on NCI-H23; 20.2 µM (inactive) in the assay with LOX IMVI. Moreover, the GI50 with SK-MEL-28 is > 100 µM (inactive); in the assay on HCT-116 it was > 10 µM (inactive); in the assay on SF-539, 20.3 µM (inactive); with OVCAR-3 it was > 100 µM (inactive).

`NC1CCC[C@H]1O` (stereo partly specified): the GI50 in the assay with UO-31, with HL-60, in the assay on TK-10, in the assay with NCI-H522, with SNB-75 and in the assay on SK-OV-3 was > 100 µM (inactive) each time. The GI50 with ACHN, in the assay on CCRF-CEM, in the assay on SF-268, with 786-0, in the assay on NCI-H23 and in the assay with LOX IMVI was > 100 µM (inactive) each time. For the same compound, the GI50 in the assay on SK-MEL-28, in the assay on HCT-116, in the assay on SF-539 and with OVCAR-3 was > 100 µM (inactive) throughout.

In the case of `COc1cccc2c1C(=O)c1c(O)c3c(c(O)c1C2=O)C[C@@](O)(C(=O)CO)CC3OC1CC(NCCOCC(OC(C)=O)OC(C)=O)C(O)C(C)O1` (stereo partly specified), the GI50 in the assay with UO-31, in the assay with HL-60, in the assay with TK-10, with SNB-75, in the assay on SK-OV-3 and in the assay on ACHN was < 0.01 µM (active) each time. Besides, the GI50 was 0.00766 µM (active) in the assay with CCRF-CEM; < 0.01 µM (active) in the assay on SF-268; < 0.01 µM (active) in the assay on OVCAR-5; < 0.01 µM (active) in the assay with 786-0; < 0.01 µM (active) in the assay on NCI-H23; 0.00598 µM (active) in the assay on LOX IMVI. For the same compound, the GI50 in the assay on SK-MEL-28, with SF-539 and in the assay on OVCAR-3 was < 0.01 µM (active) throughout.

For the compound `O=C(NN1C(=O)C(Cl)C1c1c(O)ccc2ccccc12)c1ccccc1O` (stereo unspecified), the GI50 in the assay with UO-31, with HL-60, in the assay with TK-10, with NCI-H522, with SNB-75 and in the assay on SK-OV-3 was > 100 µM (inactive) in each case. For the same compound, the GI50 with ACHN, in the assay with CCRF-CEM, with SF-268, in the assay on 786-0, with NCI-H23 and in the assay on LOX IMVI was > 100 µM (inactive) each time. Further, the GI50 in the assay with SK-MEL-28, with HCT-116, in the assay on SF-539 and in the assay on OVCAR-3 was > 100 µM (inactive) each time.
